Source: patent publication US20180319810A1, “SUBSTITUTED BRIDGED UREA ANALOGS AS SIRTUIN MODULATORS” (GlaxoSmithKline Intellectual Property (No.2) Limited, priority 2014, published 2018)

molecular target: T1, SIRT1 (Homo sapiens, UniProt Q96EB6); experiment: Trp mass spectrometry assay of SIRT1 activation; format: biochemical; conditions: Trp peptide Ac-R-H-K-K(Ac)-W-NH2 0.5 μM, 120 μM βNAD+, 10 nM SIRT1, 25 min, 25° C.
T1 sequence (Q96EB6 1-747): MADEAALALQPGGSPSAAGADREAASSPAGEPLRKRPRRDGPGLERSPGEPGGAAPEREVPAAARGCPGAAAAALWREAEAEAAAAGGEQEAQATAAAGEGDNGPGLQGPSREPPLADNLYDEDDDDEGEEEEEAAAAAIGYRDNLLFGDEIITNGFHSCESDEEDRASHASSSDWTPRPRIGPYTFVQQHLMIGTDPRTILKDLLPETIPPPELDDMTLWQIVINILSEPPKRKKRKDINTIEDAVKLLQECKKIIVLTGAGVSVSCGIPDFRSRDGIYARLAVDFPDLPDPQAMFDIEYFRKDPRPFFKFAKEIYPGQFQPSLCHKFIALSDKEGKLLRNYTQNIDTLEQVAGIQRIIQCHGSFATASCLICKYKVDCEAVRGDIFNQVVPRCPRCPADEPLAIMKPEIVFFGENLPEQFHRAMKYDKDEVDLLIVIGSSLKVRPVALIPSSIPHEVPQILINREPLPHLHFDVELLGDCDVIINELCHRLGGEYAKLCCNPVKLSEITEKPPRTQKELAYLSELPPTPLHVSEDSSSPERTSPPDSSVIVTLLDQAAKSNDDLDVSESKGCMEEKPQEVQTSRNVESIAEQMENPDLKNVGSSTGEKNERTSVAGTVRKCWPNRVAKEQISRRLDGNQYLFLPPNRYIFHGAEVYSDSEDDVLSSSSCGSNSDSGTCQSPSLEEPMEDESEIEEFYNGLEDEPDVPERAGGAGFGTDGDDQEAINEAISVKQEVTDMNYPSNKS
Source text: Mass spectrometry based assays were used to identify modulators of SIRT1 activity. […] The peptide was labeled with the fluorophore 5TMR (excitation 540 nm/emission 580 nm) at the C-terminus. The sequence of the peptide substrate was based on p53 with several modifications. In addition, the methionine residue naturally present in the sequence was replaced with the norleucine because the methionine may be susceptible to oxidation during synthesis and purification.
The Trp mass spectrometry assay was conducted as follows. […] The SIRT1 protein was obtained by cloning the SirT1 gene into a T7-promoter containing vector, which was then expressed in BL21(DE3) bacterial cells and purified as described in further detail below. Test compound was added at varying concentrations to this reaction mixture and the resulting reactions were monitored. After the 25 minute incubation with SIRT1, 10 μL of 10% formic acid was added to stop the reaction. The resulting reactions were sealed and frozen for later mass spec analysis. The relative SIRT1 activity was then determined by measuring the amount of O-acetyl-ADP-ribose (OAADPR) formed (or, alternatively, the amount of deacetylated Trp peptide generated) by the NAD-dependent sirtuin deacetylation reaction in the presence of varying concentrations of the test compound versus control reactions lacking the test compound.
The degree to which the test agent activated deacetylation by SIRT1 was expressed as EC1.5 (i.e., the concentration of compound required to increase SIRT1 activity by 50% over the control lacking test compound), and Percent Maximum Activation (i.e., the maximum activity relative to control (100%) obtained for the test compound).
This time point was the same as that used for test compounds and, within the linear range, the endpoint represents a change in velocity.
For the above assay, SIRT1 protein was expressed and purified as follows. The SirT1 gene was cloned into a T7-promoter containing vector and transformed into BL21(DE3). The protein was expressed by induction with 1 mM IPTG as an N-terminal His-tag fusion protein at 18° C. overnight and harvested at 30,000×g. Cells were lysed with lysozyme in lysis buffer (50 mM Tris-HCl, 2 mM Tris[2-carboxyethyl]phosphine (TCEP), 10 μM ZnCl2, 200 mM NaCl) and further treated with sonication for 10 min for complete lysis. The protein was purified over a Ni-NTA column (Amersham) and fractions containing pure protein were pooled, concentrated and run over a sizing column (Sephadex S200 26/60 global). The peak containing soluble protein was collected and run on an Ion-exchange column (MonoQ). Gradient elution (200 mM-500 mM NaCl) yielded pure protein. This protein was concentrated and dialyzed against dialysis buffer (20 mM Tris-HCl, 2 mM TCEP) overnight. The protein was aliquoted and frozen at −80° C. until further use.
“NT” means not tested; “ND” means not determinable.

SMILES	TRP Activity (EC1.5, concentration of compound required to increase SIRT1 activity by 50% over control)	TRP MAX RESP (percent maximum fold activation relative to control)
O=C(Nc1cccc(OC[C@@H](O)CO)n1)N1c2nc(-c3cccc(C(F)(F)F)c3)ncc2N2CC[C@H]1C2 [Example 31, (8S)—N-(6-((S)-2,3-dihydroxypropoxy)pyridin-2-yl)-2-(3-(trifluoromethyl)phenyl)-7,8-dihydro-5,8-methanopyrimido[4,5-b][1,4]diazepine-9(6H)-carboxamide]	A (EC1.5<1 μM)	A (Fold activation ≥150%)
O=C(Nc1cnc(OC[C@@H](O)CO)cn1)N1c2nc(-c3cccc(C(F)(F)F)c3)ncc2N2CCC[C@H]1C2 [Example 83, (9S)—N-(5-((S)-2,3-dihydroxypropoxy)pyrazin-2-yl)-2-(3-(trifluoromethyl)phenyl)-8,9-dihydro-6H-5,9-methanopyrimido[4,5-b][1,4]diazocine-10(7H)-carboxamide]	A (EC1.5<1 μM)	A (Fold activation ≥150%)
Cc1ccc2c(NC(=O)N3c4nc(C(=O)N[C@H](C)C(F)(F)F)nc(C)c4N4CCC[C@H]3C4)n[nH]c2n1 [Example 73, (9S)-4-methyl-N10-(6-methyl-1H-pyrazolo[3,4-b]pyridin-3-yl)-N2-((R)-1,1,1-trifluoropropan-2-yl)-8,9-dihydro-6H-5,9-methanopyrimido[4,5-b][1,4]diazocine-2,10(7H)-dicarboxamide]	A (EC1.5<1 μM)	A (Fold activation ≥150%)
O=C(Nc1cnc(OC[C@H](O)CO)cn1)N1c2nc(-c3cccc(C(F)(F)F)c3)ncc2N2CCC[C@H]1C2 [Example 97, (9S)—N-(5-((R)-2,3-dihydroxypropoxy)pyrazin-2-yl)-2-(3-(trifluoromethyl)phenyl)-8,9-dihydro-6H-5,9-methanopyrimido[4,5-b][1,4]diazocine-10(7H)-carboxamide]	A (EC1.5<1 μM)	A (Fold activation ≥150%)
Cc1cc(-c2ncc3c(n2)N(C(=O)Nc2cccnc2)[C@H]2CCCN3C2)ccn1 [Example 114, (9S)-2-(2-methylpyridin-4-yl)-N-(pyridin-3-yl)-8,9-dihydro-6H-5,9-methanopyrimido[4,5-b][1,4]diazocine-10(7H)-carboxamide]	B (EC1.5 1-25 μM)	A (Fold activation ≥150%)
O=C(Nc1ccnc(OC2CCOCC2)n1)N1c2nc(-c3cccc(C(F)(F)F)c3)ncc2N2CC[C@H]1C2 [Example 19, (8S)—N-(2-((tetrahydro-2H-pyran-4-yl)oxy)pyrimidin-4-yl)-2-(3-(trifluoromethyl)phenyl)-7,8-dihydro-5,8-methanopyrimido[4,5-b][1,4]diazepine-9(6H)-carboxamide]	B (EC1.5 1-25 μM)	A (Fold activation ≥150%)
C[C@@H](NC(=O)c1ncc2c(n1)N(C(=O)Nc1cnc(OC[C@H](O)CO)cn1)[C@H]1CCCN2C1)C(F)(F)F [Example 69]	B (EC1.5 1-25 μM)	A (Fold activation ≥150%)
CCNC(=O)N1c2nc(-c3cccc(C(F)(F)F)c3)ncc2N2CC[C@H]1C2.Cl [Example 21, (8S)—N-ethyl-2-(3-(trifluoromethyl)phenyl)-7,8-dihydro-5,8-methano pyrimido[4,5-b][1,4]diazepine-9(6H)-carboxamide, Hydrochloride]	A (EC1.5<1 μM)	A (Fold activation ≥150%)
O=C(Nc1ccc(OC[C@@H](O)CO)nc1)N1c2nc(-c3cccc(C(F)(F)F)c3)ncc2N2CCC[C@H]1C2 [Example 101, (9S)—N-(6-((S)-2,3-dihydroxypropoxy)pyridin-3-yl)-2-(3-(trifluoromethyl)phenyl)-8,9-dihydro-6H-5,9-methanopyrimido[4,5-b][1,4]diazocine-10(7H)-carboxamide]	A (EC1.5<1 μM)	A (Fold activation ≥150%)
Cc1nc(-c2cccc(C(F)(F)F)c2)nc2c1N1CCC[C@@H](C1)N2C(=O)Nc1cnc(OC[C@H](O)CO)nc1 [Example 106, (9S)—N-(2-((R)-2,3-dihydroxypropoxy)pyrimidin-5-yl)-4-methyl-2-(3-(trifluoromethyl)phenyl)-8,9-dihydro-6H-5,9-methanopyrimido[4,5-b][1,4]diazocine-10(7H)-carboxamide]	A (EC1.5<1 μM)	A (Fold activation ≥150%)
O=C(Nc1cncc(OC[C@H](O)CO)n1)N1c2nc(-c3cccc(C(F)(F)F)c3)ncc2N2CC[C@H]1C2 [Example 37, (8S)—N-(6-((R)-2,3-dihydroxypropoxy)pyrazin-2-yl)-2-(3-(trifluoromethyl)phenyl)-7,8-dihydro-5,8-methanopyrimido[4,5-b][1,4]diazepine-9(6H)-carboxamide]	B (EC1.5 1-25 μM)	A (Fold activation ≥150%)
O=C(Nc1nccc(OC[C@@H](O)CO)n1)N1c2nc(-c3cccc(C(F)(F)F)c3)ncc2N2CCC[C@H]1C2 [Example 103, (9S)—N-(4-((S)-2,3-dihydroxypropoxy)pyrimidin-2-yl)-2-(3-(trifluoromethyl)phenyl)-8,9-dihydro-6H-5,9-methanopyrimido[4,5-b][1,4]diazocine-10(7H)-carboxamide]	B (EC1.5 1-25 μM)	A (Fold activation ≥150%)
O=C(Nc1cc(OC[C@H](O)CO)ccn1)N1c2nc(-c3cccc(C(F)(F)F)c3)ncc2N2CC[C@H]1C2 [Example 33, (8S)—N-(4-((R)-2,3-dihydroxypropoxy)pyridin-2-yl)-2-(3-(trifluoromethyl)phenyl)-7,8-dihydro-5,8-methanopyrimido[4,5-b][1,4]diazepine-9(6H)-carboxamide]	B (EC1.5 1-25 μM)	A (Fold activation ≥150%)
O=C(Nc1cnc(OC[C@@H](O)CO)cn1)N1c2nc(-c3cccc(C(F)(F)F)c3)ncc2N2CC[C@H]1C2 [Example 23, (8S)—N-(5-((S)-2,3-dihydroxypropoxy)pyrazin-2-yl)-2-(3-(trifluoromethyl)phenyl)-7,8-dihydro-5,8-methanopyrimido[4,5-b][1,4]diazepine-9(6H)-carboxamide]	B (EC1.5 1-25 μM)	A (Fold activation ≥150%)
